Patent EP4745117A1, “NOVEL INDENONE DERIVATIVE AND USE THEREOF” (Amyloid Solution Inc., priority 2023, dated 2025)

Legend:
[1] = biological target: Tau-RD3 (Tau repeat domain 3) (Homo sapiens, UniProt P10636); experiment: Tau disaggregation test by Thioflavin-T analysis; assay type: biochemical; details: for EC50: Tau-RD3 35 µM aggregated 24 hours, then compound 0 - 500 µM for 48 hours at 37 °C, concentration disaggregating 50 % of aggregates vs control, read-out: EC50 (µM) Tau; for disaggregation effect for tau protein aggregates: statement in words summarising the Thioflavin-T results
Procedure: (§1) Each compound was dissolved in DMSO to a concentration of 10 mM. Then, the compounds were diluted with 6 % DMSO (in DW) for use.
(§2) Amyloid-beta and tau solutions were prepared by dissolving Aβ1-42 or Tau-RD3 (Tau repeat domain 3) monomers in DMSO to a concentration of 10 mM. Then, the solutions were diluted to 100 µM with DW and stored on ice.
(§3) Meanwhile, Thioflavin-T was dissolved in 50 mM glycine buffer (pH 8.5) to a concentration of 5 mM. Then, the solution was diluted to 5 µM with 50 mM glycine buffer (pH 8.5) and stored in the dark, protected from light.
(§4) The amyloid-beta and tau solutions prepared in Example 1.1 were each placed in 1.5 mL microcentrifuge tubes to a concentration of 50 µM or 35 µM, respectively, and then reacted at 37 °C for 24 hours.
(§5) To each 1.5 mL microcentrifuge tube in which the amyloid-beta and tau aggregation was complete, the compounds were added at concentrations ranging from 500 µM down to 0 µM by serial dilution, and then further reacted at 37 °C for 48 hours.
(§6) 25 µL of each completed reaction solution was added to each well of a 96-well fluorescence analysis plate, and 75 µL of the Thioflavin-T solution was added to each well. After reacting for 5 minutes at room temperature in the dark, the fluorescence value was measured at 450 nm (excitation) and 485 nm (emission) using a multi-mode microplate reader.
(§7) The fluorescence value of the group (control group) treated with only amyloid-beta or tau and aggregated for 72 hours was designated as 100 %. The fluorescence values measured after treating the amyloid-beta and tau aggregates (formed by reacting for 24 hours) with each compound by concentration and reacting for an additional 48 hours were converted to relative values.

Aβ1-42 = biological target: T1, Aβ1-42 (Homo sapiens, UniProt P05067); experiment: Amyloid-beta disaggregation test by Thioflavin-T analysis; assay type: biochemical; details: for EC50: Aβ1-42 50 µM aggregated 24 hours, then compound 0 - 500 µM for 48 hours at 37 °C, concentration disaggregating 50 % of aggregates vs control, read-out: EC50 (µM) Aβ; for disaggregation effect for amyloid-beta protein aggregates: statement in words summarising the Thioflavin-T results
T1 construct: dissolving Aβ1-42 or Tau-RD3 (Tau repeat domain 3) monomers in DMSO
Procedure: as §1, §2, §3, §4, §5, §6, §7

Tau-RD3 (Tau repeat domain 3), sequence (P10636 623-653 limits assumed): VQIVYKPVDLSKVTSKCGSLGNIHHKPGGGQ
T1 sequence (P05067 672-713 limits assumed): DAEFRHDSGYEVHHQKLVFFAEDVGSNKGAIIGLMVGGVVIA

What does the source list for `COc1ccccc1C1=C(c2cccnc2)C(=O)c2cc(OCCCc3ccccc3)ccc21` [Compound 44, 3-(2-methoxyphenyl)-6-(3-phenylpropoxy)-2-(pyridin-3-yl)-1H-inden-1-one]?
EC50 [1]: > 250 µM; EC50 (Aβ1-42): < 20 µM

What does the source list for `COc1ccccc1C1=C(c2cccnc2)C(=O)c2cc(O)ccc21` [Compound 44-8, 6-hydroxy-3-(2-methoxyphenyl)-2-(pyridin-3-yl)-1H-inden-1-one]?
EC50 [1]: 20 to 100 µM; EC50 (Aβ1-42): 100 to 250 µM

For `COc1cccc(OC)c1C1=C(c2cccnc2)C(=O)c2cc(OCCCc3ccccc3)ccc21` [Compound 45, 3-(2,6-dimethoxyphenyl)-6-(3-phenylpropoxy)-2-(pyridin-3-yl)-1H-inden-1-one], which EC50 [1] is on record?
Its EC50 is 100 to 250 µM.

And the EC50 (Aβ1-42)?
The EC50 was under 20 µM.

With `COc1cccc(OC)c1C1=C(c2cccnc2)C(=O)c2cc(O)ccc21` [Compound 45-8, 3-(2,6-dimethoxyphenyl)-6-hydroxy-2-(pyridin-3-yl)-1H-inden-1-one] as the compound, how does the EC50 [1] read?
Its EC50 is over 250 µM.

What about the EC50 (Aβ1-42) of the same compound?
The EC50 was 100 to 250 µM.

Which EC50 [1] does the source give for `Cc1cc(OCCCc2ccccc2)cc2c1C(c1scnc1C)=C(c1cccnc1)C2=O` [Compound 46, 4-methyl-3-(4-methylthiazol-5-yl)-6-(3-phenylpropoxy)-2-(pyridin-3-yl)-1H-inden-1-one] here?
Its EC50 is under 20 µM.

And the “disaggregation effect for tau protein aggregates” value [1]?
Its value is “remarkably excellent disaggregation effect”.

And the EC50 (Aβ1-42)?
Its EC50 is under 20 µM.

What about the “disaggregation effect for amyloid-beta protein aggregates” value (Aβ1-42) of the same compound?
The value was “remarkably excellent disaggregation effect”.

`COc1cc(OCCCc2ccccc2)cc2c1C(c1scnc1C)=C(c1cccnc1)C2=O` [Compound 47, 4-methoxy-3-(4-methylthiazol-5-yl)-6-(3-phenylpropoxy)-2-(pyridin-3-yl)-1H-inden-1-one] was tested. Which EC50 [1] did it give?
The EC50 was under 20 µM.

And the “disaggregation effect for tau protein aggregates” value [1]?
Its value is “remarkably excellent disaggregation effect”.

And the EC50 (Aβ1-42)?
The EC50 was under 20 µM.

What about the “disaggregation effect for amyloid-beta protein aggregates” value (Aβ1-42) of the same compound?
The value was “remarkably excellent disaggregation effect”.

How did the EC50 [1] turn out when `Cc1ncsc1C1=C(c2cccnc2)C(=O)c2cc(OCCCc3ccccc3)cc(O)c21` [Compound 48, 4-hydroxy-3-(4-methylthiazol-5-yl)-6-(3-phenylpropoxy)-2-(pyridin-3-yl)-1H-inden-1-one] was run?
The EC50 was over 250 µM.

What about the EC50 (Aβ1-42) of the same compound?
Its EC50 is under 20 µM.

For `Cc1ncsc1C1=C(c2cccnc2)C(=O)c2cc(NC3CCCC3)ccc21` [Compound 49, 6-(cyclopentylamino)-3-(4-methylthiazol-5-yl)-2-(pyridin-3-yl)-1H-inden-1-one], which EC50 [1] is on record?
The EC50 was over 250 µM.

And the EC50 (Aβ1-42)?
The EC50 was under 20 µM.

How did the EC50 [1] turn out when `CNc1ccc2c(c1)C(=O)C(c1cccnc1)=C2c1scnc1C` [Compound 50, 6-(methylamino)-3-(4-methylthiazol-5-yl)-2-(pyridin-3-yl)-1H-inden-1-one] was run?
Its EC50 is over 250 µM.

And the EC50 (Aβ1-42)?
Its EC50 is over 250 µM.

With `Cc1ncsc1C1=C(c2cccnc2)C(=O)c2cc(NC3CCN(C)CC3)ccc21` [Compound 51, 6-((1-methylpiperidin-4-yl)amino)-3-(4-methylthiazol-5-yl)-2-(pyridin-3-yl)-1H-inden-1-one] as the compound, how does the EC50 [1] read?
The EC50 was 20 to 100 µM.

And the EC50 (Aβ1-42)?
The EC50 was under 20 µM.

For `Cc1ncsc1C1=C(c2cccnc2)C(=O)c2cc(NCC3CCOCC3)ccc21` [Compound 52, 3-(4-methylthiazol-5-yl)-2-(pyridin-3-yl)-6-(((tetrahydro-2H-pyran-4-yl)methyl)amino)-1H-inden-1-one], which EC50 [1] is on record?
The EC50 was over 250 µM.

What about the EC50 (Aβ1-42) of the same compound?
Its EC50 is over 250 µM.

Which EC50 [1] does the source give for `Cc1ncsc1C1=C(c2cccnc2)C(=O)c2cc(NCCO)ccc21` [Compound 53, 6-((2-hydroxyethyl)amino)-3-(4-methylthiazol-5-yl)-2-(pyridin-3-yl)-1H-inden-1-one] here?
Its EC50 is over 250 µM.

What about the EC50 (Aβ1-42) of the same compound?
The EC50 was over 250 µM.

For `COCCNc1ccc2c(c1)C(=O)C(c1cccnc1)=C2c1scnc1C` [Compound 54, 6-((2-methoxyethyl)amino)-3-(4-methylthiazol-5-yl)-2-(pyridin-3-yl)-1H-inden-1-one], which EC50 [1] is on record?
The EC50 was over 250 µM.

And the EC50 (Aβ1-42)?
Its EC50 is over 250 µM.

How did the EC50 [1] turn out when `Cc1ncsc1C1=C(c2cccnc2)C(=O)c2cc(NCCOc3ccccc3)ccc21` [Compound 55, 3-(4-methylthiazol-5-yl)-6-((2-phenoxyethyl)amino)-2-(pyridin-3-yl)-1H-inden-1-one] was run?
The EC50 was over 250 µM.

And the EC50 (Aβ1-42)?
Its EC50 is under 20 µM.
